Earlier results on four compounds are cited in US20260217893A1, “ACID-BLOCKED PYRROLIDINE CATALYSTS FOR POLYURETHANE FOAM” (Huntsman Petrochemical LLC, priority 2019, published 2026).

The conditions of the data set: refs 2-5: CRC Handbook, U.S. Pat. No. 9,051,442, J. Org. Chem. 1961, J. Chem. Eng. Data 2016.
A word on the pKa: it is the negative logarithm of the acid dissociation constant. Turning to `CN(C)CCN(C)CCO` [JEFFCAT ® Z-110, N,N,N-trimethylaminoethyl-ethanolamine], the pKa is 9.18.
Regarding `CN(C)CCOCCO` [JEFFCAT ® ZR-70, 2-(2-dimethylaminoethoxy) ethanol], the pKa is recorded as 9.1.
In the case of `CN(C)CCN(C)CCN(C)C` [PMDETA, pentamethyldiethylenetriamine], the pKa is listed as 9.1.
In the case of `CN(C)C1CCCCC1` [dimethylcyclohexylamine, N,N-dimethylcyclohexylamine], the pKa is 10.1.
